Measurements from ChEMBL document CHEMBL1127581, “Evolution of a novel series of [(N,N-dimethylamino)propyl]- and piperazinylbenzanilides as the first selective 5-HT1D antagonists” (J Med Chem, 1994).

Key:
[1] = target: T1, 5-hydroxytryptamine receptor 1A (Rattus norvegicus, UniProt P19327); experiment: Binding affinity towards 5-hydroxytryptamine 1A receptor in rat hippocampus with [3H]8-OH-DPAT; assay type: tissue-based
T1 sequence (P19327 whole entry): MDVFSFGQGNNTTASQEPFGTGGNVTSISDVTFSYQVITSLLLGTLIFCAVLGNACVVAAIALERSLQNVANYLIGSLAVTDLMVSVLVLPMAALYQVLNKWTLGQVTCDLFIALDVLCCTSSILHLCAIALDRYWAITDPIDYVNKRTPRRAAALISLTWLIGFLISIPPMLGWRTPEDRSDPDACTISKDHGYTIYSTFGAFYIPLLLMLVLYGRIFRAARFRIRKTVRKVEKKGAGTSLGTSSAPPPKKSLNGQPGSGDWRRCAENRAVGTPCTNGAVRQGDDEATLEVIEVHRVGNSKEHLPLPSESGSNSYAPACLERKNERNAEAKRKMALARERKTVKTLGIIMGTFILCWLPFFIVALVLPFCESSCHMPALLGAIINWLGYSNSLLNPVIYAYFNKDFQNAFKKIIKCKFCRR

[2] = target: 5-hydroxytryptamine receptor 1D (Cavia porcellus) (UniProt Q60484); experiment: Oral effective dose against hypothermia in the guinea pig caused by stimulation of central 5-hydroxytryptamine 1D receptors by the agonist GR-46611;range is 0.2-0.4; assay type: functional
5-hydroxytryptamine receptor 1D (Cavia porcellus), sequence (Q60484 whole entry): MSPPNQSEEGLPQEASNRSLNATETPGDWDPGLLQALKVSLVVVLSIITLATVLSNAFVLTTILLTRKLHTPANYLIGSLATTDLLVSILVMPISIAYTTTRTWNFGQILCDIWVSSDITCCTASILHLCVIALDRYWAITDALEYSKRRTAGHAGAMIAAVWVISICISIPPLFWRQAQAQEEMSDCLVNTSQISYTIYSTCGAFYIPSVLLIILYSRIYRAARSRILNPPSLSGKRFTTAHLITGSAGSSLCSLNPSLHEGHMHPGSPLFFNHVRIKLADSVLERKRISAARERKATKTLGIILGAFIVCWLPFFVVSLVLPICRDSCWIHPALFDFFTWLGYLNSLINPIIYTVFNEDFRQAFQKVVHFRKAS

[3] = target: 5-hydroxytryptamine receptor 1B (Rattus norvegicus, UniProt P28564); experiment: In vitro binding affinity towards 5-hydroxytryptamine 1B receptor in rat striatal membrane with [125I]- iodocyanopindolol; assay type: cell membranes, Striatum
5-hydroxytryptamine receptor 1B, sequence (P28564 whole entry): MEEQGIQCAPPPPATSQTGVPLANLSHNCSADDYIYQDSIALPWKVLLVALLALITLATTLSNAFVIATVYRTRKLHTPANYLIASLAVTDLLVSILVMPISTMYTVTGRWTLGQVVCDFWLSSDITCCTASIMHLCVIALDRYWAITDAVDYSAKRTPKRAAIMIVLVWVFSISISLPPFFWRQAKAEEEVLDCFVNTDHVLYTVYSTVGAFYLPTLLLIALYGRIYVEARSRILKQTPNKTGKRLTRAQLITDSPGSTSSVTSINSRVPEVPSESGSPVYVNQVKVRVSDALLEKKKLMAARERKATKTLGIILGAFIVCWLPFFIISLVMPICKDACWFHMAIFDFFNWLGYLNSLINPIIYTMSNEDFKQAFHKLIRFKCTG

[4] = target: Serotonin 3 (5-HT3) receptor; experiment: Binding affinity against the 5-hydroxytryptamine 3 receptor; assay type: protein-complex assay
[5] = target: T2, Adrenergic receptor alpha-2 (Homo sapiens, UniProt P08913+P18825+P18089); experiment: Binding affinity against alpha-2 adrenoceptor; assay type: protein assay
T2 sequence (P08913 whole entry): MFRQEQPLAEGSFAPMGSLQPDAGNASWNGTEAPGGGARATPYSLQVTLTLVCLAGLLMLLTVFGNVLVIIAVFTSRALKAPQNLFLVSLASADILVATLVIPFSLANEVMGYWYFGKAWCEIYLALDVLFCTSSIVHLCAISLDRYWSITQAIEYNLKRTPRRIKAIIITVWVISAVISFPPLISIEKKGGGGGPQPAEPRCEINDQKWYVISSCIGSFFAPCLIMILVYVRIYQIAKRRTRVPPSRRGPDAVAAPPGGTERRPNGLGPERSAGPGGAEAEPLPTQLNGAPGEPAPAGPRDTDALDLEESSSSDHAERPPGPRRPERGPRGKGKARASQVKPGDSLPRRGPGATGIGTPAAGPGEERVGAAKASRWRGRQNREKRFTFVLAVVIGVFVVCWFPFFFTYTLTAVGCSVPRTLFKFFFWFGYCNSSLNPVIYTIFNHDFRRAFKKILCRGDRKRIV
T2 sequence (P18825 whole entry): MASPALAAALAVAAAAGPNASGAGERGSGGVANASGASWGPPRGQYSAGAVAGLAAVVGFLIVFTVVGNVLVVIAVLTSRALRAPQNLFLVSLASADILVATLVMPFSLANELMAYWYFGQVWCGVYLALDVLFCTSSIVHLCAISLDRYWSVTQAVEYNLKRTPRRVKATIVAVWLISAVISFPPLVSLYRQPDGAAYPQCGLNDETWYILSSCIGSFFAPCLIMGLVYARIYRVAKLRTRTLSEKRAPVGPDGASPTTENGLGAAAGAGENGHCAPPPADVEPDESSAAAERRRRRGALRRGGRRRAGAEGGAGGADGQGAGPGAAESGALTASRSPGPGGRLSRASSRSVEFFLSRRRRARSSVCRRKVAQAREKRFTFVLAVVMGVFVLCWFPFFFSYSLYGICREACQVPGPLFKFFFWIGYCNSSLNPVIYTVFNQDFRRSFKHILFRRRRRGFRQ
T2 sequence (P18089 whole entry): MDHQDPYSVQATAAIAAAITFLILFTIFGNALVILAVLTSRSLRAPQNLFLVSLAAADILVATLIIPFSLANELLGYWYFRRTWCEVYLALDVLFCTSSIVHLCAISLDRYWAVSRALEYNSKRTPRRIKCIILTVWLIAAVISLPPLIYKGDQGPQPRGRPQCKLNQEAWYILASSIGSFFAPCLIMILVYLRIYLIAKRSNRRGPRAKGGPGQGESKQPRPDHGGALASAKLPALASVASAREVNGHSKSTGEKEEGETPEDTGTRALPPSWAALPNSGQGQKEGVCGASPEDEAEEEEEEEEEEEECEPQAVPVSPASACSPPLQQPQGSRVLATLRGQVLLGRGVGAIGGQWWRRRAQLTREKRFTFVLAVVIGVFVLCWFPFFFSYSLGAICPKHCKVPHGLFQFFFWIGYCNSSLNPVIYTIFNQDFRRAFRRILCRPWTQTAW

D(2) dopamine receptor = D(2) dopamine receptor (Homo sapiens, UniProt P14416); experiment: Binding affinity against dopamine D2 receptor
D(2) dopamine receptor, sequence (P14416 whole entry): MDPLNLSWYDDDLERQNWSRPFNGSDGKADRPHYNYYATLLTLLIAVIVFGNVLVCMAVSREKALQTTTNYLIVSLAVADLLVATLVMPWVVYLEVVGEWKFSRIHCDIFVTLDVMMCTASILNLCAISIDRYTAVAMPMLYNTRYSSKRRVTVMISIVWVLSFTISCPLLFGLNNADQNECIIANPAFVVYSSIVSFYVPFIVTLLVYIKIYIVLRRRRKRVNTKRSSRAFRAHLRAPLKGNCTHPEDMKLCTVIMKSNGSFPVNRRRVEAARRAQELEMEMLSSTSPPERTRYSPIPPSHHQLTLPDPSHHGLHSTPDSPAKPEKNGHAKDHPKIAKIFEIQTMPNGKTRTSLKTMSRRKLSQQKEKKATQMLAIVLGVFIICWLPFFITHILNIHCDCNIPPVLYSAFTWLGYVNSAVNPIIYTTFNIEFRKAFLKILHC

D(1A) dopamine receptor = D(1A) dopamine receptor (Homo sapiens, UniProt P21728); experiment: Binding affinity against dopamine receptor D1
D(1A) dopamine receptor, sequence (P21728 whole entry): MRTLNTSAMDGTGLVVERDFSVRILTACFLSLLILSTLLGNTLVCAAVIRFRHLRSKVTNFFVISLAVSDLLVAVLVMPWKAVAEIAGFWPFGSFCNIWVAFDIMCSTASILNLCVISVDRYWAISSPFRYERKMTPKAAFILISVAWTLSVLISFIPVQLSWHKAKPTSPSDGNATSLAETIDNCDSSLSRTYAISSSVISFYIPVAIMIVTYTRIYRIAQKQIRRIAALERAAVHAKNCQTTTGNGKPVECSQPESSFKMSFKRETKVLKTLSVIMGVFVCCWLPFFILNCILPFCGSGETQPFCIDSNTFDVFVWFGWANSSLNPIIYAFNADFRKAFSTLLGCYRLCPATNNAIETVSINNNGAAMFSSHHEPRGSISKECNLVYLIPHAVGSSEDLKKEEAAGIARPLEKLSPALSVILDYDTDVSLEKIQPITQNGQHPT

[6] = target: Muscarinic acetylcholine receptor M3 (Homo sapiens, UniProt P20309); experiment: Binding affinity against muscarinic M3 receptor
Muscarinic acetylcholine receptor M3, sequence (P20309 whole entry): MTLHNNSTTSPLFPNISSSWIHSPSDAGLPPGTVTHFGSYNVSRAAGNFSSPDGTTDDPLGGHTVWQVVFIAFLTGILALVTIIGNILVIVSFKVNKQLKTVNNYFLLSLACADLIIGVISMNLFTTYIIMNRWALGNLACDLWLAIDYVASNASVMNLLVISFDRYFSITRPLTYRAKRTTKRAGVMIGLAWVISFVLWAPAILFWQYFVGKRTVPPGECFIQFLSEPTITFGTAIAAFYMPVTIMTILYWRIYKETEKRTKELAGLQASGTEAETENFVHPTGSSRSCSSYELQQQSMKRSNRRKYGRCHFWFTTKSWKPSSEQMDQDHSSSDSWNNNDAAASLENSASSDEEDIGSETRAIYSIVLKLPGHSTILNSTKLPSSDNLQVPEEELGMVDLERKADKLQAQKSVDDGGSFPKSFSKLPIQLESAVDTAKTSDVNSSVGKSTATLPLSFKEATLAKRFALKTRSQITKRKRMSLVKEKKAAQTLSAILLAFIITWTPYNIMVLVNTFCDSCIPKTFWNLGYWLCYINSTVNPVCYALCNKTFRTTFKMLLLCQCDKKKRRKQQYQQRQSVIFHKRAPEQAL

Oryctolagus cuniculus = species on record: Oryctolagus cuniculus; experiment: Tested in vitro for its ability to block 5-HT2A induced contraction of rabbit isolated aorta; assay type: functional
D(4) dopamine receptor = target: T3, D(4) dopamine receptor (Homo sapiens, UniProt P21917); experiment: Binding affinity against dopamine D4 receptor
T3 sequence (P21917 whole entry): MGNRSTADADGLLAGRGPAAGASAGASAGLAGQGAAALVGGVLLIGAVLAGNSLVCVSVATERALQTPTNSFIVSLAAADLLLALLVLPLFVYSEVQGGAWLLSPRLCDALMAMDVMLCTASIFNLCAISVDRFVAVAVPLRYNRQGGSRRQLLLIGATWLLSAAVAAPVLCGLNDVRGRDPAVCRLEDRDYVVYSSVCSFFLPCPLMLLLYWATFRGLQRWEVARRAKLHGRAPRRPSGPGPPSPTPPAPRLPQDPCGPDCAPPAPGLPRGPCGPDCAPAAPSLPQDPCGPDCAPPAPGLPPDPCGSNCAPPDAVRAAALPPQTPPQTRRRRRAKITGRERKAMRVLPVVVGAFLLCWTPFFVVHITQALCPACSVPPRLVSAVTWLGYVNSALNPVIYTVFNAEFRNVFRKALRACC

Canis familiaris = species on record: Canis familiaris; details: Canis lupus familiaris; Saphenous vein; filed as antagonist

Ki [1]: 316 nM
ED50 [2]: 0.3 mg/kg
Ki [3]: 3.16 nM
Log Ki [4]: -5.2
Log Ki [5]: > -6
Ki (D(2) dopamine receptor): > 10000 nM
Ki (D(1A) dopamine receptor): > 10000 nM
Ki [6]: > 1000 nM
Ki (D(4) dopamine receptor): > 10000 nM
SMILES: COc1ccc(NC(=O)c2ccc(-c3ccc(-c4noc(C)n4)cc3C)cc2)cc1N1CCN(C)CC1 [GR-127935]
pKB (Oryctolagus cuniculus): 6.4
pKB (Canis familiaris): Antagonist
